Holding throughout (type): cell-based, human
Experiment [1] has as its system PARP. Nature of the experiment: PARP cleavage in MCF-7 cells. Conditions: 48 hours treatment. The source says: Rabbit polyclonal poly (ADP-ribose) polymerase (PARP) (H-250) was obtained from Santa Cruz Biotechnology Inc., (Santa Cruz, Calif.). α-Tubulin antibody was obtained from Neomarkers, Fremont, Calif. All antibodies used for proteomics analysis were obtained from Cell Signaling (Beverly, Mass.), Upstate Biotechnology (Lake Placid, N.Y.), Neomarkers (Fremont, Calif.) and Santa Cruz (Santa Cruz, Calif.) (Table 2). Referring to Table 2, Abs designated as “mouse” were monoclonal Abs, and Abs designated as “rabbit” were polyclonal Abs. The ECL detection reagent was obtained from Amersham (Arlington Heights, Ill.).
To determine whether depolarization of the mitochondrial membrane, induced by pentamer leads to apoptotic cellular death in human breast cancer cells lines, MDA MB-231 and MCF-7 cells were examined for PARP cleavage products. Since PARP is one of the downstream substrates of the caspase cascade, it is an excellent marker of apoptosis [Soldani, C. et al., Apoptosis, 7: 321-328, 2002].

The test system of experiment [2] is PKC-θ. The experiment is described as follows: Confirmation of LPS results by immunoblotting, MDA MB-231 cells. Particulars: PVDF membranes. The protocol: (§1) The proteins affected by pentamer, as detected by LPS, were analyzed further by immunoblotting. Antibodies against the following proteins were used: Cdc2 (Tyr15), FKHR (Ser256), p53 (Ser37, Ser46 and Ser392), PKC-δ (Ser643), PKC-θ (Ser643/676), pRb (Ser795 and Ser807/811), SAPK/JNK (Thr183/Tyr185) and Stat 5 (Tyr694) (all antibodies were obtained from Cell Signaling).
(§2) Protein pellets from pentamer-treated MDA MB-231, MDA MB-468 and MCF-7 cells and corresponding DMSO-treated controls were lysed in PBS with 1% SDS and sonicated for 15 seconds at a power of five watts. Samples were then centrifuged at 10,000 rpm and supernatants transferred into clean tubes. Protein concentration was determined as descried above. Ten jig of each protein sample was separated by PAGE on 4-20% gradient gels (BioRad, Philadelphia, Pa.). Gels were either transferred to PVDF membranes (BioRad) or P-FILM membrane (stacks of 10 membranes) according to the manufacturer's instructions (20/20 Gene Systems). PVDF membranes were blocked for 1 hour in 0.5% casein solution (Vector Laboratories, Burlingame, Calif.), prior to incubation with primary antibodies. […] The membranes were incubated overnight at 4° C. in 1:500 dilutions of primary antibodies, washed three times in TBST for five minutes, incubated in HRP-conjugated secondary antibodies, washed again and incubated in ECL Plus Reagent (Amersham). Signals were visualized on BIOMAX MR film (Kodak, Rochester, N.Y.). Following incubation with primary antibodies, membranes were incubated in anti-GAPDH antibody (1:500 dilution; Chemicon, Temecula, Calif.). The presence of this protein was visualized with secondary antibody conjugated to alkaline phosphatase DuoLux substrate (Vector Laboratories).
(In general: A western blot detects proteins with antibodies after separation by electrophoresis.)

Experiment [3] concerns SAPK/JNK. The description is as above. Particulars: PVDF membranes. On the procedure: as §1, §2
Experiment [4] concerns PKC-δ. The experiment is described as above. Conditions: PVDF membranes. On the procedure: as §1, §2
Experiment [5] deals with Stat5. The description is as above. Particulars: PVDF membranes. The protocol: as §1, §2
Experiment [6] concerns Cdc2 (Tyr15). Nature of the experiment: LPS multi-well plate phosphorylation screen in MDA MB-231 cells. Conditions: 100 μg/mL, densitometry vs control. From the text: (§3) Layered Protein Scanning (LPS) is a method for screening liquid protein samples in a high throughput manner using multi-well plates [Englert, C. R. et al., Cancer Res., 60: 1526-1530, 2000], and conducted by 20/20 Gene Systems, Inc., (Rockville, Md.). In short, cells are lysed and protein extract loaded into the wells of vacuum manifold and transferred through a stack of membranes. From each set of samples, up to five dot blot membranes are generated.
(§4) MDA MB-231 human breast cancer cells were treated, with or without 100 μg/mL pentamer, for 48 and 72 hours. Cells were lysed in LPS/MWP lysis buffer (20/20 Gene Systems, Inc.). Protein concentration was determined using BCA Protein Assay Kit (Pierce, Rockford, Ill.). Ten and 20 μg of each protein sample was loaded in duplicate onto Bio-Dot Microfiltration Apparatus (BioRad, Philadelphia, Pa.) and transferred through a 5-membrane stack as recommended by the manufacturer (20/20 Gene Systems). After the transfer, all of the membranes were biotinylated in 1 mg/mL EZ-Link Sulfo-NHS-Biotin solution in 1×PBS for 10 minutes at room temperature (Pierce).
(§5) Membranes were incubated overnight at 4° C. with the antibodies shown in Table 1 (1:500 or 1:1000 dilution). The following day, membranes were washed in Tris-buffered saline with Tween 20 (0.1%) (TBST buffer) and incubated for 60 minutes at room temperature in a mixture of FluoroLink Cy 5-labeled Streptavidin (1:500, Amersham) and Fluorescein-labeled secondary anti-mouse or anti-rabbit antibody (1:2,000, Molecular Probes, Eugene, Oreg.), followed by washes in TBST. Membranes were dried and scanned on a Typhoon scanner (Amersham), and obtained images were analyzed with InageQuant software (Amersham). Data were plotted in Excel and statistically analyzed in JMP (SAS Institute, Inc., Cary, N.C.). Hierarchical clustering analysis was performed to evaluate segregation of samples into control and treated groups.

The test system of experiment [7] is SAPK/JNK at Thr183/Tyr185. Described as above. Conditions: 100 μg/mL.
Description: as §3, §4, §5

In experiment [8] the test system is p53. The experiment is described as above. Particulars: 100 μg/mL.
Description: as §3, §4, §5

Experiment [9] has as its system pRb at Ser 795 and Ser807/811. The description is as above. Particulars: 100 μg/mL.
Description: as §3, §4, §5

For experiment [10], the system named is PKC-δ at Ser643. The experiment is described as above. Particulars: 100 μg/mL.
Description: as §3, §4, §5

Experiment [11] has as its system PKC-θ at Ser 643/676. The description is as above. Conditions: 100 μg/mL, 72 hrs.
Description: as §3, §4, §5

In experiment [12] the test system is FKHR (Ser256). The description is as above. Conditions: 100 μg/mL, 72 hours, densitometry vs control.
Description: as §3, §4, §5

Experiment [13] deals with Stat 5 at Tyr 694. The description is as above. Particulars: 100 μg/mL.
Description: as §3, §4, §5

With `Oc1cc(O)c2c(c1)O[C@H](c1ccc(O)c(O)c1)[C@H](O)[C@H]2c1c(O)cc(O)c2c1O[C@H](c1ccc(O)c(O)c1)[C@H](O)[C@H]2c1c(O)cc(O)c2c1O[C@H](c1ccc(O)c(O)c1)[C@H](O)[C@H]2c1c(O)cc(O)c2c1O[C@H](c1ccc(O)c(O)c1)[C@H](O)[C@H]2c1c(O)cc(O)c2c1O[C@H](c1ccc(O)c(O)c1)[C@H](O)C2` [pentamer, pentameric procyanidin], in experiment [1], the “cleaved PARP fragment” value is on record as “no cleaved PARP fragment was detected”. For the same compound, the “full-length PARP (116 kDa)” value in experiment [1] is on record as “decrease”. Also, the “confirmation of LPS result on PKC-θ by immunoblotting” value in experiment [2] is listed as “not confirmed”. Also, in [3], the “confirmation of LPS result on SAPK/JNK by immunoblotting” value is “not confirmed”. In addition, the “confirmation of LPS result on PKC-δ by immunoblotting” value in [4] is recorded as “not confirmed”. Besides, in [5], the “confirmation of LPS result on Stat5 by immunoblotting” value was “not confirmed”. In addition, the “phosphorylation of Cdc2 (Tyr15) decreased” value in experiment [6] (48 hrs) is given as 31%; in [6] (72 hrs) it was 45%. In addition, the results for the “phosphorylation of SAPK/JNK at Thr183/Tyr185 decreased” value in experiment [7] (48 hrs) and in experiment [7] (72 hrs) were 34% and 26%, respectively. The “phosphorylation of p53 residues Ser6, Ser9, Ser20 and Ser15” value in experiment [8] (LPS) was “not significantly affected”. For the same compound, the “phosphorylation of p53 (antibody mix at Ser37, 46 and 392) decreased” value in [8] (post treatment, densitometry vs control) turned out to be 36%. Moreover, the figures for the “phosphorylation of pRb at Ser 795 and Ser807/811 decreased” value in [9] (48 hrs) and in [9] (72 hrs) were 36% and 40%, respectively. Besides, the figures for the “phosphorylation of PKC-δ at Ser643 decreased” value in [10] (48 hrs) and in experiment [10] (72 hrs) were 22% and 49%, respectively. Also, in experiment [11], the “phosphorylation of PKC-θ at Ser 643/676 decreased” value was 49%. The “phosphorylation of FKHR (Ser256) decreased” value in [12] worked out at 63%. Further, the “Stat 5 phosphorylation at Tyr 694 decreased” value worked out at 28% in experiment [13] (48 hrs) and 33% in experiment [13] (72 hrs).

The values above are taken from patent US7371776B2, “Methods and compositions for treating cancer” (Mars, Incorporated, priority 2004, dated 2008).
